Drawing on ChEMBL document CHEMBL1201862, “PubChem BioAssay data set” (2004), this text covers IC50, EC50 and AC50 for two compounds.

Values joined by “and” are separate entries in the source; they are usually repeats but may differ in a detail not shown here. Equal entries are not always repeated. Active and inactive are the calls of the source. Bounds are passed on as bounds.

Assay [1] deals with HEK293. As to the kind of experiment: cells. Conditions: Homo sapiens.
Assay [2] addresses T1, Nucleotide-binding oligomerization domain-containing protein 2 (Homo sapiens, UniProt Q9HC29). The assay is described as follows: NOD2 inhibitors, SAR follow-up, set 2 (AID 2475). Type of assay: functional.
Assay [3] relates to HEK293. As to the kind of experiment: cells. Type of assay: functional, cell-based. Conditions: Homo sapiens.
The target in assay [4] is T2, Tumor necrosis factor (Homo sapiens, UniProt P01375). The assay is described as follows: TNFa-triggered NF-kB activation inhibitors, SAR follow-up, cell-based, set 3 (AID 2801). Type of assay: functional.
The target of assay [5] is T1, Nucleotide-binding oligomerization domain-containing protein 2. The assay is described as follows: NOD2 signaling inhibitors, analog potency, SAR follow-up, cell-based, set 3 (AID 2799). The assay is classed as functional.
The target in assay [6] is T3, Interleukin-8 (Homo sapiens, UniProt P10145).
T3 sequence (P10145 whole entry): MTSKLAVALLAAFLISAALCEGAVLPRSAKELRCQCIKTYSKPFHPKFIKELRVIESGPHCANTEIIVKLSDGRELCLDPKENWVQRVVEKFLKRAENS
As to the kind of experiment: SAR analysis of GM-Tri-DAP induced IL-8 secretion in MCF-7/NOD1 cells - Set 2. [Related pubchem assays (depositor defined):AID1575, AID1578, AID2333]. The assay is classed as functional, cell-based.

Assay [7] deals with T4, Nucleotide-binding oligomerization domain-containing protein 1 (Homo sapiens, UniProt Q9Y239).
T4 sequence (Q9Y239 whole entry): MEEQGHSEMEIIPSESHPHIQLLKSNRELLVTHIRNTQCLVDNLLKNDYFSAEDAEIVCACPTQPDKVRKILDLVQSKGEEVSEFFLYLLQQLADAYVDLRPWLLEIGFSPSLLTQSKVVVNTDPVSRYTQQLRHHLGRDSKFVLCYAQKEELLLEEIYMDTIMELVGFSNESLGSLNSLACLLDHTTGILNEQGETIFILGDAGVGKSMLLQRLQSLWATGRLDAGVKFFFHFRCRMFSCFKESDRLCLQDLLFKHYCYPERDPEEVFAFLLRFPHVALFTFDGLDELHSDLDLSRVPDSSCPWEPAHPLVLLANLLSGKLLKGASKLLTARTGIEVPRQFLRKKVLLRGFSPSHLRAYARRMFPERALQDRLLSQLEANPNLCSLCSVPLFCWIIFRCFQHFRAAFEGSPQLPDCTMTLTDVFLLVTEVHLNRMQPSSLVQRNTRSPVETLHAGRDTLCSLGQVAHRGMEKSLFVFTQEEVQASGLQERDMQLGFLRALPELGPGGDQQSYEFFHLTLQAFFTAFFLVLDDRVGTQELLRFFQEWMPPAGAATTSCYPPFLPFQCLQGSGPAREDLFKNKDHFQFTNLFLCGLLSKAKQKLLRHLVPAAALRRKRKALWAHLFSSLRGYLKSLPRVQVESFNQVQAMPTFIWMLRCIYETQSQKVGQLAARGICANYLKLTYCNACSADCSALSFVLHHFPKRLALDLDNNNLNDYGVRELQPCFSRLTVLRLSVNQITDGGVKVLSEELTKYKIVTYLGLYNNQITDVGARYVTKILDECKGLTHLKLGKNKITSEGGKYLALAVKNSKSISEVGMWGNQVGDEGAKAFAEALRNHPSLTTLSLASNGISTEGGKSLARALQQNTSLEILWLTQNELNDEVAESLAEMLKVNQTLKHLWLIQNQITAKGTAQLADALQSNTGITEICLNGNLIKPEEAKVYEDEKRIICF
The assay is described as follows: SAR analysis of NF-kappaB dependent luciferase using DAP as an inducer - Set 2. [Related pubchem assays (depositor defined):AID1566, AID1575, AID1578, AID1579, AID1849, AID1852, AID2264]. Type of assay: functional.

Assay [8] addresses T2, Tumor necrosis factor. As to the kind of experiment: TNFa-triggered NF-kB activation inhibitors, SAR follow-up, cell-based, revised (AID 2337). The assay is classed as functional.
Assay [9] relates to HEK293. The assay is described as follows: NOD2 signaling inhibitors in MDP-stimulated cells, cell-based, uHTS, luminescence (AID 2001). The assay is classed as functional. Conditions: Homo sapiens.
Assay [10] concerns the target T1, Nucleotide-binding oligomerization domain-containing protein 2. The assay is described as follows: PubChem AID 2334. Type of assay: functional.
Assay [11] deals with HEK293. The assay is described as follows: SAR analysis of compounds that are cytotoxic to HEK293 - Set 2. [Related pubchem assays (depositor defined):AID1575, AID1578, AID1849, AID2001, AID2333, AID2334, AID2335, AID2337, AID2800]. Type of assay: functional, cell-based. Conditions: Homo sapiens.
Assay [12] concerns the target T3, Interleukin-8. As to the kind of experiment: SAR analysis of Tumor necrosis factor alpha (TNF-alpha) induced IL-8 secretion in MCF-7/NOD1 cells - Set 2. [Related pubchem assays (depositor defined):AID1575, AID2250, AID2260]. The assay is classed as functional, cell-based.
Assay [13] concerns HEK293. The assay is described as follows: cells. The assay is classed as functional, cell-based. Conditions: Homo sapiens. The source holds these as a separate data set.
The subject of assay [14] is HEK293. The assay is described as follows: NOD1 signaling inhibitors, primary screen, cell-based, luminescence, uHTS (AID 1578). Conditions: Homo sapiens. Type of assay: functional.
Assay [15] has as its system HEK293. The assay is described as follows: SAR analysis of compounds that are cytotoxic to HEK293 - Set 3. [Related pubchem assays (depositor defined):AID1575, AID1578, AID1848, AID1849, AID2001, AID2333, AID2334, AID2335, AID2337, AID2469]. The assay is classed as functional, cell-based. Conditions: Homo sapiens.
Assay [16] addresses T4, Nucleotide-binding oligomerization domain-containing protein 1. The assay is described as follows: NOD1 signaling inhibitors, SAR follow-up, revised (AID 2333). The assay is classed as functional.
The target is the same in assay [17]. As to the kind of experiment: SAR analysis of compounds that inhibit NOD1 - Set 3. [Related pubchem assays (depositor defined):AID1566, AID1575, AID1578, AID1849, AID1852, AID2333, AID2335, AID2466]. The assay is classed as functional.
Assay [18] has as its target T5, Sentrin-specific protease 1 (Homo sapiens, UniProt Q9P0U3).
T5 sequence (Q9P0U3 whole entry): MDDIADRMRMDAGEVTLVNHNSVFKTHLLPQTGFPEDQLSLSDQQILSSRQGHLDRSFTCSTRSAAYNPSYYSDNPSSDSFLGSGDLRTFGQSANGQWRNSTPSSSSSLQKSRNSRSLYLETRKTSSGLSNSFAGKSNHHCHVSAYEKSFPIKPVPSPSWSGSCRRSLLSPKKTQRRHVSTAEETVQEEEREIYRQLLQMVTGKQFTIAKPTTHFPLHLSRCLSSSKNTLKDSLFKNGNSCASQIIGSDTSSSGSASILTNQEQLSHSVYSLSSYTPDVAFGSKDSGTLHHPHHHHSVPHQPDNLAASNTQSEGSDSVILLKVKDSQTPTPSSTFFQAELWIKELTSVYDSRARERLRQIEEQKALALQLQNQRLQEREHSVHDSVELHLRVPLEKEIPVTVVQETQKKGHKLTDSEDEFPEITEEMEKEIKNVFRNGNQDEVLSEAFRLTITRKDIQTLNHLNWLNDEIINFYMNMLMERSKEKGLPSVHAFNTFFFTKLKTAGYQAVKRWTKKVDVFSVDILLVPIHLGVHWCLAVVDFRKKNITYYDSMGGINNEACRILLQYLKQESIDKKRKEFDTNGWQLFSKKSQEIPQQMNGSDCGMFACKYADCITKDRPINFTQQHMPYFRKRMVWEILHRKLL
As to the kind of experiment: Dose response confirmation of small molecule inhibitors of the catalytic domain of the SUMO protease, SENP1 in a FRET assay. Type of assay: functional. Conditions: read-out: IC50_Mean.

In assay [19] the target is T5, Sentrin-specific protease 1. As to the kind of experiment: potency of human SENP1 inhibitors, dose response, biochemical, kinetic FRET (AID 651697). Conditions: read-out: IC50_Mean. Type of assay: functional.
The target of assay [20] is Lysine-specific demethylase 4C (Homo sapiens, UniProt Q9H3R0). The assay is described as follows: GASC-1 (JMJD2C) histone demethylase inhibitors, dose response, biochemical, DELFIA europium, cherry-picked samples (AID 488835). Type of assay: functional.
In assay [21] the target is T6, Rac GTPase-activating protein 1 (Homo sapiens, UniProt Q9H0H5).
T6 sequence (Q9H0H5 whole entry): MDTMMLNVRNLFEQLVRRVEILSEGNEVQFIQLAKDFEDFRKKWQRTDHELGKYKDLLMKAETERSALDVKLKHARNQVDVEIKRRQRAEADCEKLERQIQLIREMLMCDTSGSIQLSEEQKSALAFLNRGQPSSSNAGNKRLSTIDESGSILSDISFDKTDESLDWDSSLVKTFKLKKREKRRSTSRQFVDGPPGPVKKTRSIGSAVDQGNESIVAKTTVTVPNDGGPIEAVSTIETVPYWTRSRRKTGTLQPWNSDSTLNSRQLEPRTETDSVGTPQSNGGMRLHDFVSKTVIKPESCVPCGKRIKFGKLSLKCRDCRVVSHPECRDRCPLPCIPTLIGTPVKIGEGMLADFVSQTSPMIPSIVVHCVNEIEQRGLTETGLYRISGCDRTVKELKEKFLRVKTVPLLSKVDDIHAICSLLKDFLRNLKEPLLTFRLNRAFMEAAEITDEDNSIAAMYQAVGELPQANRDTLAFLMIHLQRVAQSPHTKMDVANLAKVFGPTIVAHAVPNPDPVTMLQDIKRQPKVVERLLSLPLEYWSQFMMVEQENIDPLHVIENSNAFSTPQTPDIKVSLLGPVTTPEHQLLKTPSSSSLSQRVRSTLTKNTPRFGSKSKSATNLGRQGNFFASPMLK
As to the kind of experiment: MgcRacGAP GTPase-activating activity inhibitors, confirmation, biochemical, ADP Hunter fluorescence, primary and confirmatory (AID 624330). Type of assay: functional.

Assay [22] deals with Lysine-specific demethylase 4A (Homo sapiens, UniProt O75164). As to the kind of experiment: JMJD2A histone demethylase inhibitors, dose response, selectivity assay for GASC-1 inhibitor project, biochemical, DELFIA europium, cherry-picked samples (AID 488840).
The target in assay [23] is Dual specificity tyrosine-phosphorylation-regulated kinase 1A (Rattus norvegicus, UniProt Q63470). Type of assay: biochemical, Homo sapiens.

T2 sequence (P01375 whole entry, the tested form may be a part): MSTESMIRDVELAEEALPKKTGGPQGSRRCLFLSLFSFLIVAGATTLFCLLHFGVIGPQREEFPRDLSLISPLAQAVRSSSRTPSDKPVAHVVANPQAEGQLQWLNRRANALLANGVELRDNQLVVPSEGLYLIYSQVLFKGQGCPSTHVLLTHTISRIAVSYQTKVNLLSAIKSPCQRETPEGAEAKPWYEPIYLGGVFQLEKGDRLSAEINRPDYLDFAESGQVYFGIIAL
T1 sequence (Q9HC29 whole entry, the tested form may be a part): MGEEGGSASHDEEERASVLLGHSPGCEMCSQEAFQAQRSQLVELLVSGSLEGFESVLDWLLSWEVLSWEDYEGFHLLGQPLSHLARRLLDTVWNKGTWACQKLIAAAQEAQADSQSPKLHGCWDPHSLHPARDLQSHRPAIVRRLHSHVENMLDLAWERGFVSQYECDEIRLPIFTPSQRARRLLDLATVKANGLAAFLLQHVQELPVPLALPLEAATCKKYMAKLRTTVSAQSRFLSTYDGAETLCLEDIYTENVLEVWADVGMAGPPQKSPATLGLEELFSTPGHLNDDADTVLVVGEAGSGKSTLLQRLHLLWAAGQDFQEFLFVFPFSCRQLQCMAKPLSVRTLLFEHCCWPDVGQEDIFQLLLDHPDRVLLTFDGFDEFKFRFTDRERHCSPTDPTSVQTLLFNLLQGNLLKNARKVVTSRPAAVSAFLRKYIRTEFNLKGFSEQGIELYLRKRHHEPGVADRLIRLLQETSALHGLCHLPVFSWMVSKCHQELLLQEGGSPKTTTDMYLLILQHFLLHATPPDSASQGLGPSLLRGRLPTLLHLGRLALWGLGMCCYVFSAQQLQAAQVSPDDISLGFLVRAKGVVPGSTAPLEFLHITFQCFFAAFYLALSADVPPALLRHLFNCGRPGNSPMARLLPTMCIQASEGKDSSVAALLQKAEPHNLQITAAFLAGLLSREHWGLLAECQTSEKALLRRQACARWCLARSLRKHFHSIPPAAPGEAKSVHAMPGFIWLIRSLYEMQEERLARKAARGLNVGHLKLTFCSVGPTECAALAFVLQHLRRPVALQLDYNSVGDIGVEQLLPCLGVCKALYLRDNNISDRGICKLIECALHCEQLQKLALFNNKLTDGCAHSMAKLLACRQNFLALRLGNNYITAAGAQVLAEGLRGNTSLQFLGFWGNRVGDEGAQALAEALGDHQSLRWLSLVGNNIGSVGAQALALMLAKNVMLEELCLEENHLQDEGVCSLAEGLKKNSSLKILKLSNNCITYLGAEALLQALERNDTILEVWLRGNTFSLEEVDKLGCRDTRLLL
Sequence of Lysine-specific demethylase 4A (O75164 whole entry): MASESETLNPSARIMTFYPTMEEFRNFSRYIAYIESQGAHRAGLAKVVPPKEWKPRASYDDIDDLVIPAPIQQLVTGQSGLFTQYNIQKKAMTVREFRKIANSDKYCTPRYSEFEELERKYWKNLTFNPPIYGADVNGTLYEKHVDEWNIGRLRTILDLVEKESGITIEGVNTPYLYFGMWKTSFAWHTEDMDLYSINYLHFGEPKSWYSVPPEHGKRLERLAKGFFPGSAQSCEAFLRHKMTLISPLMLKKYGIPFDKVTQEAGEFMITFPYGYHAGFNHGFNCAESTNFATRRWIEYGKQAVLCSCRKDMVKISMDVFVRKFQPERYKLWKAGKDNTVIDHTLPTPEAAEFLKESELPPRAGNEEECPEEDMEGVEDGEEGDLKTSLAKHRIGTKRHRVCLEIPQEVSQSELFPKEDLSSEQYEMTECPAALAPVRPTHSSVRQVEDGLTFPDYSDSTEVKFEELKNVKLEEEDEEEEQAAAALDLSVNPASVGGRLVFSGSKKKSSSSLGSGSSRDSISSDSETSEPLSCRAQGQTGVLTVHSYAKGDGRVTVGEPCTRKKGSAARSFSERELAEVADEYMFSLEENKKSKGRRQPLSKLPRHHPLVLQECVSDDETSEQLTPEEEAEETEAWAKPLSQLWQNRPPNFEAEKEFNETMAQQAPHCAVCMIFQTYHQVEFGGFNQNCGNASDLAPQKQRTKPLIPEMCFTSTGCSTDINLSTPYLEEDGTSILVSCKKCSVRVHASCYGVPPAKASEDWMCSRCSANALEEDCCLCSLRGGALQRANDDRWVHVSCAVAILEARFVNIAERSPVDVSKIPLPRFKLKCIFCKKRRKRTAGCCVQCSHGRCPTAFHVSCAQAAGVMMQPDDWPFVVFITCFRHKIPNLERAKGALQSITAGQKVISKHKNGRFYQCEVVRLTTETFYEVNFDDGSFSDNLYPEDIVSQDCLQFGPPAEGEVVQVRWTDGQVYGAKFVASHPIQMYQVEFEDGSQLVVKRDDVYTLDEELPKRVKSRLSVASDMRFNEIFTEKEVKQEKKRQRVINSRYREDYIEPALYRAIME
Sequence of Lysine-specific demethylase 4C (Q9H3R0 whole entry): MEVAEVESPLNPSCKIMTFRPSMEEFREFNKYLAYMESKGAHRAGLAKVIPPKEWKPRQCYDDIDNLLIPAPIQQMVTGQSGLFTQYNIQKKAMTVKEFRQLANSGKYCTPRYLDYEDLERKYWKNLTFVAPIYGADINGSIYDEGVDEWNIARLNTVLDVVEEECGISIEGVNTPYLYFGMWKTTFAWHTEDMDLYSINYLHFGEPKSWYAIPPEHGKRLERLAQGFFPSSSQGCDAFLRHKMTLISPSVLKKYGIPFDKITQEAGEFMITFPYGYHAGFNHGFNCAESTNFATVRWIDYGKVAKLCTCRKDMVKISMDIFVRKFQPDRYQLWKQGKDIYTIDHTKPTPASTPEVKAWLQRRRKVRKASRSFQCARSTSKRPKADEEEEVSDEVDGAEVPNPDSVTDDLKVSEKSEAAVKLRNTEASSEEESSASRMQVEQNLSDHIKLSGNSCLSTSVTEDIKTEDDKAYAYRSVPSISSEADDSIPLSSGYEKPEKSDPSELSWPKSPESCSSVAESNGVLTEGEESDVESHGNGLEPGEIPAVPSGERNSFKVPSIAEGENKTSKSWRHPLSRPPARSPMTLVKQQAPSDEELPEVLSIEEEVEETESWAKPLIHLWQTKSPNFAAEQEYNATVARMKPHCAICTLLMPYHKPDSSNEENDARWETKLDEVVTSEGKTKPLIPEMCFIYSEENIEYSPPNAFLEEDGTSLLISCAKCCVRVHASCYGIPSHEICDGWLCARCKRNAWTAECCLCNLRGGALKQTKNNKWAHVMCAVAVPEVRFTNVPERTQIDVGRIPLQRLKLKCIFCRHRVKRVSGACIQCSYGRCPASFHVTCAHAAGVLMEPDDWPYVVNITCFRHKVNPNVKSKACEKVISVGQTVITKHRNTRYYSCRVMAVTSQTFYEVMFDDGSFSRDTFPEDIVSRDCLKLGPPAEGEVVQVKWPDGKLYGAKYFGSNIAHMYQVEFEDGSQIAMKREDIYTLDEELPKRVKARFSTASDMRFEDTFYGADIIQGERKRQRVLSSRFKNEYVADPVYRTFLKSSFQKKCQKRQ

As to `C/C=C/Cn1c(SCCCc2ccccc2)nc2c1c(=O)[nH]c(=O)n2C`, the IC50 in assay [1] was > 20 µM (inactive); in [2], 4.18 µM (active); in [3] it was > 20 µM (inactive); in assay [4] it was 18.2 µM (active) and 18.6 µM (inactive); in assay [5], 7.97 µM (active) and 10.6 µM (active); in [6], 3.43 µM (active). In addition, the IC50 in assay [7] was 14.4 µM (active); in [8], 62.7 µM (inactive); in assay [9], 16.2 µM (inactive); in [10], 16.9 µM (active); in [11], > 20 µM (inactive); in assay [12], > 25 µM (inactive). In addition, the IC50 in assay [13] is > 20 µM (inactive); in assay [15], > 20 µM (inactive); in assay [16] it was 1.81 µM (active); in assay [17], 1.36 µM (active). Also, the EC50 in assay [14] is 6.37 µM (active).

With `C[C@@H]1O[C@@H](OC[C@H]2O[C@@H](Oc3cc(O)c4c(=O)cc(-c5ccc(O)c(O)c5)oc4c3)[C@H](O)[C@@H](O)[C@@H]2O)[C@H](O)[C@H](O)[C@H]1O`, the IC50 is 6.84 µM (active) in assay [18], 14.7 µM (active) in [19] and 42.7 µM (active) in assay [21]. The AC50 is 2.82 µM (active) in assay [20], 2.86 µM (active) in assay [22] and 15.8 µM (active) in assay [23].
